Assay results taken from patent publication US9586965B2, “Pyrrolo[2,3-d]pyrimidine compounds as inhibitors of protein kinases” (ACEA BIOSCIENCES INC., priority 2012, dated 2017).
pIC50: −log10 of the molar value. Several values for one entry are separate records, joined by “and”; a condition that tells them apart may be missing. Equal values may be shown once. Read-outs that look alike come from different tables or passages of the source.

Columns and labels:
[1] = target: EGFR (pY1068) in A431 cell (WT) (Homo sapiens (Human), UniProt P00533); assay: pEGFR sandwich ELISA assay (Examples B-2, B-3, Table 21); type: cell-based; conditions: read-out: IC50 (uM) A431 WT (EGF stimulation)
[2] = target: EGFR (pY1068) in H1975 cell (T790M/L858R) (Homo sapiens (Human), UniProt P00533, L858R/T790M); assay: as above; type: cell-based; conditions: for IC50: read-out: IC50 (uM) H1975 T790M/L858R (no EGF stimulation)
human wt BTK = human wt BTK (Homo sapiens (Human), UniProt Q06187); assay: ClariCELL BTK cell-based assay; conditions: Cell-based Assays (CAI) IC50(μM) BTK, HEK293 transfected with human wt BTK; 2 hours; repeat runs
From the text: (§3) Protocol for ClariCELL™ JAK3 and BTK Assays is described below: • HEK293 human embryonic kidney cells were transiently transfected with either human wt BTK, human wt JAK3, or kinase-dead human JAK3 (for JAK3 negative controls).

human wt JAK3 = human wt JAK3 (Homo sapiens (Human), UniProt P52333); assay: ClariCELL JAK3 cell-based assay; conditions: Cell-based Assays (CAI) IC50(μM) JAK3, HEK293 transfected with human wt JAK3; 2 hours; repeat runs
From the text: as §3

JAK3 = JAK3 (Homo sapiens (Human), UniProt P52333); assay: HotSpot kinase assay; type: biochemical; conditions: Enzymatic Assays; Table 22; unit inferred
Experimental: (§1) Assay Description. In vitro profiling protein kinases was performed using the “HotSpot” assay platform. Briefly, specific kinase/substrate pairs along with required cofactors were prepared in reaction buffer. Compounds were delivered into the reaction, followed 15-20 minutes later by addition of a mixture of ATP (Sigma, St. Louis Mo.) and ^33P ATP (Perkin Elmer, Waltham Mass.) to a final concentration of 10 μM. […] IC50 values and curve fits were obtained using Prism (GraphPad Software).
(§2) Reaction Conditions: Buffer Conditions: 20 mM Hepes (pH 7.5), 10 mM MgCl2, 1 mM EGTA, 0.02% Brij35, 0.02 mg/mL BSA, 0.1 mM Na3VO4, 2 mM DTT, and 1% DMSO. ATP concentration: 10 μM. Reaction Time: 2 hours. […] All kinase reactions were performed at 10 uM ATP. Test concentrations are provided below in molar units (M).

BTK = BTK (Homo sapiens (Human), UniProt Q06187); assay: HotSpot kinase assay; type: biochemical; conditions: Enzymatic Assays; Table 22; unit inferred
Experimental: as §1, §2

JAK2 = JAK2 (Homo sapiens (Human), UniProt O60674); assay: HotSpot kinase assay; type: biochemical; conditions: Enzymatic Assays; Table 22; unit inferred
Experimental: as §1, §2

[3] = tested on: A431 (WT) human skin epidermoid carcinoma xenograft; conditions: for Tumor volume: 100 mpk PO QD
Experimental: Each mouse was inoculated subcutaneously at the right flank with H1975 cells (5×10^6), HCC827 (5×10^6) and A431 (5×10^6) respectively in 0.2 ml of medium for tumor development. The treatments were started when the tumor size reached approximately 200-250 mm^3. The testing articles were administrated to the mice according to the predetermined regimen as shown in the experimental design table.
All the procedures related to animal handling, care and the treatment in this study were performed according to the guidelines approved by the Institutional Animal Care and Use Committee (IACUC) following the guidance of the Association for Assessment and Accreditation of Laboratory Animal Care (AAALAC). At the time of routine monitoring, the animals were checked for any effects of tumor growth and treatments on normal behavior such as mobility, food and water consumption (by observation), body weight gain/loss (body weights were measured twice weekly), eye/hair matting and any other abnormal effect. Death and observed clinical signs were recorded on the basis of the numbers of animals within each subset.
The major endpoint was to see if the tumor growth can be delayed or mice can be cured. Tumor size was measured twice weekly in two dimensions using a caliper, and the volume was expressed in mm^3 using the formula: V=0.5 a×b^2 where a and b are the long and short diameters of the tumor, respectively. The tumor size was then used for calculations of both T-C and T/C values. T-C was calculated with T as the median time (in days) required for the treatment group tumors to reach a predetermined size (e.g., 1,000 mm^3), and C as the median time (in days) for the control group tumors to reach the same size. The T/C value (in percent) was an indication of antitumor effectiveness; T and C were the mean volume of the treated and control groups, respectively, on a given day. Tumor weight was measured at the study termination. The T/C value (in percent) was calculated where T and C were the mean tumor weights of the treated and control groups, respectively.

EGFR (pY1068) in A431 cell (WT), sequence (P00533 25-1210): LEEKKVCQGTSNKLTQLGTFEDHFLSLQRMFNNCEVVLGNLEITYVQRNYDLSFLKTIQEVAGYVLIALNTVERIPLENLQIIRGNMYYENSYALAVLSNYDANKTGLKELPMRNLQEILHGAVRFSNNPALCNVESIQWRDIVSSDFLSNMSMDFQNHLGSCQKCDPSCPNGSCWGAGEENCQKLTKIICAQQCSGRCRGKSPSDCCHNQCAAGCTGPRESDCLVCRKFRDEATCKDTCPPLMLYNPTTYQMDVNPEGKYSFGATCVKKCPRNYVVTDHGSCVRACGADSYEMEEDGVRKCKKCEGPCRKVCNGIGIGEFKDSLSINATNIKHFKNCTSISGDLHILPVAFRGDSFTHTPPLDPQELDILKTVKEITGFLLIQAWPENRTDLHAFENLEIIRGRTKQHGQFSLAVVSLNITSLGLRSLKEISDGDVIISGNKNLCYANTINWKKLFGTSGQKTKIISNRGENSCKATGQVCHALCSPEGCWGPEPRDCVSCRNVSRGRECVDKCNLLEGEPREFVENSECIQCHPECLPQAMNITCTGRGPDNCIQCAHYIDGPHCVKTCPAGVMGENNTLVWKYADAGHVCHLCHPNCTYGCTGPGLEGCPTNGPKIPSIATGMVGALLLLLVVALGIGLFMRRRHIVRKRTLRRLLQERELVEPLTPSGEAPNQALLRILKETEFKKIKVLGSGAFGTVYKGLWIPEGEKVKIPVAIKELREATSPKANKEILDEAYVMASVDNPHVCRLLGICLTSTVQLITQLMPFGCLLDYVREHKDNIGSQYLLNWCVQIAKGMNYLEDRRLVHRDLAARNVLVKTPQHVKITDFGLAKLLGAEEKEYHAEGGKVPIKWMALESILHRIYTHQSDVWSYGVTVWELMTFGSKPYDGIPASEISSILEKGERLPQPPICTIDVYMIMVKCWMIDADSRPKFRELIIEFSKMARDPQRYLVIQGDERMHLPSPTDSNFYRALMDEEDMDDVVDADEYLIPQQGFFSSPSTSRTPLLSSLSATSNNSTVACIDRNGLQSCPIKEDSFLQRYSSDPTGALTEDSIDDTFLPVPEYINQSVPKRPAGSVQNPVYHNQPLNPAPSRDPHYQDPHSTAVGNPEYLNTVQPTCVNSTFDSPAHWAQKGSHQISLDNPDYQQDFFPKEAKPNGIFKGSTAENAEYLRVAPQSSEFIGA
EGFR (pY1068) in H1975 cell (T790M/L858R), sequence (P00533 25-1210 T790M/L858R): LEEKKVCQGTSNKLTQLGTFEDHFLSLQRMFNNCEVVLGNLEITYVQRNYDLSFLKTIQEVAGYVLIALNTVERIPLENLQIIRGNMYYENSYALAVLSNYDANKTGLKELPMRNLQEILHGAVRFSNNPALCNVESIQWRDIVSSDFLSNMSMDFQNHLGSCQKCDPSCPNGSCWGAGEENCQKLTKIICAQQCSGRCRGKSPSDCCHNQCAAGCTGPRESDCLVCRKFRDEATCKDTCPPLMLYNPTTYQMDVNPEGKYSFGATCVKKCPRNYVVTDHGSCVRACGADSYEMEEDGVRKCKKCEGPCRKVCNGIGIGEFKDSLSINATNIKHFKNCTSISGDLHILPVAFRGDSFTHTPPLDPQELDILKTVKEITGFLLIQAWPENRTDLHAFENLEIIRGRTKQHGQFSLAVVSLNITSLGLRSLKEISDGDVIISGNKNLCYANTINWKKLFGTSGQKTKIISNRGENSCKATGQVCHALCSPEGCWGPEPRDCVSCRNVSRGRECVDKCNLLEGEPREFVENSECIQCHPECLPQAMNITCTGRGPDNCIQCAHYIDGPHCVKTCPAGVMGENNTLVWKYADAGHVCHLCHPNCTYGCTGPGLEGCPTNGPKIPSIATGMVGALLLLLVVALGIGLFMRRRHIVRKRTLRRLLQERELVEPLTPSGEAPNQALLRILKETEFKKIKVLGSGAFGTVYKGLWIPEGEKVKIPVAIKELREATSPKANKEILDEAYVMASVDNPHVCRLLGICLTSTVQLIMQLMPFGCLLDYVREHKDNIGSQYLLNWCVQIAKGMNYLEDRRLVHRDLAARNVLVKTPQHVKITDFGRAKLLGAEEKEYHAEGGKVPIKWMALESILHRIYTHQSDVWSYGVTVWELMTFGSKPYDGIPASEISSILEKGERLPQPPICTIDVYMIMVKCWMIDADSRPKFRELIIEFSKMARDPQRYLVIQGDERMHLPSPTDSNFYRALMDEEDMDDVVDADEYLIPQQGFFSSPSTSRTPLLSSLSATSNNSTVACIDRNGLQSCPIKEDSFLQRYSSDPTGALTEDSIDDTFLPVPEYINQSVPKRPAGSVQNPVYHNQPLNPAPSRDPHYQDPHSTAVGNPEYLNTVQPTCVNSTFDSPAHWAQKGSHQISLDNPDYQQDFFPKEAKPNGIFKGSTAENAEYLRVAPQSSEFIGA
human wt JAK3, sequence (P52333 whole entry): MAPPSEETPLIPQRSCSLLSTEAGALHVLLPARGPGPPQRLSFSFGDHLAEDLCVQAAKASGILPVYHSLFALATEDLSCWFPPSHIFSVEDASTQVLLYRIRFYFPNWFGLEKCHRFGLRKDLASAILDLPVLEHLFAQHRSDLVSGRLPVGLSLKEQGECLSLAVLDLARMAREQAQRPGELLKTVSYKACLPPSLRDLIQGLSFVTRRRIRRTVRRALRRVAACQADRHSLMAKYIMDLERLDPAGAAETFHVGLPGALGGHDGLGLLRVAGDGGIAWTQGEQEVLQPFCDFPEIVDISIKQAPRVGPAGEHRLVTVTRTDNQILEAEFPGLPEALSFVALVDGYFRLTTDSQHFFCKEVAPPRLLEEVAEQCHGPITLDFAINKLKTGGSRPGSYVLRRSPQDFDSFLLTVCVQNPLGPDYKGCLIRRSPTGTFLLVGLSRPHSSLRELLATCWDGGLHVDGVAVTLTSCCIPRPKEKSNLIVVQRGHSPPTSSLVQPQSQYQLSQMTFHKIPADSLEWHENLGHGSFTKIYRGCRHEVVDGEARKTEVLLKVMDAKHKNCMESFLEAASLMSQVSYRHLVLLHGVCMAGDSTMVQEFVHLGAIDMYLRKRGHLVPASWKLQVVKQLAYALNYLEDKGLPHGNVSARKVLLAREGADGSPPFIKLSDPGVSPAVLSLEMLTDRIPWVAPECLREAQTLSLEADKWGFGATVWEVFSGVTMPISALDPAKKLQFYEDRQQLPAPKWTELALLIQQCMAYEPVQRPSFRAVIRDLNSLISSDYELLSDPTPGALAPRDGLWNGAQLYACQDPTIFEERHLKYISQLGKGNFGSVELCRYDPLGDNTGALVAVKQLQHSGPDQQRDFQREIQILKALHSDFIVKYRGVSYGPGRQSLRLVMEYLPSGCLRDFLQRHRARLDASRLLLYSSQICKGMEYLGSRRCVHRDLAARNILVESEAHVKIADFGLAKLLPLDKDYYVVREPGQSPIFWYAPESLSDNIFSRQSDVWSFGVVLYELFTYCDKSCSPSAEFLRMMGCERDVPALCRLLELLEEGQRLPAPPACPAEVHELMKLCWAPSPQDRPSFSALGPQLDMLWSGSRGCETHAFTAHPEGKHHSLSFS
human wt BTK, sequence (Q06187 whole entry): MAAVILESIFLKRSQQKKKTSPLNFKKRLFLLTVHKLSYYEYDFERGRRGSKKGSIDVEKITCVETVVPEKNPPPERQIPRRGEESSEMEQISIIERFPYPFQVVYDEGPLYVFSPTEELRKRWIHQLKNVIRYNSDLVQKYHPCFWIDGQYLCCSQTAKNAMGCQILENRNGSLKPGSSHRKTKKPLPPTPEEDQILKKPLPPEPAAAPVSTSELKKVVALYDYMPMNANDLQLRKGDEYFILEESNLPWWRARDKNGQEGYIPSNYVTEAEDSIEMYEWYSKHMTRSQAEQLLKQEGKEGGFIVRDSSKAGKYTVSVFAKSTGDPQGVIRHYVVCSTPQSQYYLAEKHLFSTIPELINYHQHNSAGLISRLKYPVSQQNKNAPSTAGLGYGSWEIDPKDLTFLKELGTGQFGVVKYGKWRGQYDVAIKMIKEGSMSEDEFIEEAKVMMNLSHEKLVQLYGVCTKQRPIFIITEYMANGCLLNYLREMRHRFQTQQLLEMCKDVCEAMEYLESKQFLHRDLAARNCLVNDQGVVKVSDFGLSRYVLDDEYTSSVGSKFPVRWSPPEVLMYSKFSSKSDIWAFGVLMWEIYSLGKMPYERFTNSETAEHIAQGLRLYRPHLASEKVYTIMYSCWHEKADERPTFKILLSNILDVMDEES
JAK2, sequence (O60674 809-1132): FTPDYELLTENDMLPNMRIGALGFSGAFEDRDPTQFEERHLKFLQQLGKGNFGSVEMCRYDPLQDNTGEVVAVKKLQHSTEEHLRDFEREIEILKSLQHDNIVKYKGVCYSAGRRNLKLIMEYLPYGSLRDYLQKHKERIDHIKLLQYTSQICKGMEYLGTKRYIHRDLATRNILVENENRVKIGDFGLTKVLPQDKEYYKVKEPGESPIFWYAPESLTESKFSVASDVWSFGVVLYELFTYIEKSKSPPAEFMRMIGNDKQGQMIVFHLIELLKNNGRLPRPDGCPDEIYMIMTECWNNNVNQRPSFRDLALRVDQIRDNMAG
JAK3, sequence (P52333 781-1124): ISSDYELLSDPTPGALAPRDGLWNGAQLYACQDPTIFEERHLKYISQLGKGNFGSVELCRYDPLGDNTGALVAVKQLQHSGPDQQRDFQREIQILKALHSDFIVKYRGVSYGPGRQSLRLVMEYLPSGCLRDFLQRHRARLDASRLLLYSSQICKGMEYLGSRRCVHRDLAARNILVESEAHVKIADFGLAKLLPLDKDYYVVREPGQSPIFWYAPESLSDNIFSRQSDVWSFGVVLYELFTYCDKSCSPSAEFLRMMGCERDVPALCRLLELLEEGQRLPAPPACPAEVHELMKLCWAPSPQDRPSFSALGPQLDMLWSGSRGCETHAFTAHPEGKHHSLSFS
BTK, sequence (Q06187 whole entry): as the sequence (Q06187 whole entry) above

| SMILES | IC50 [1] | Selectivity A431/H1975 [2] | IC50 [2] | other results |
| --- | --- | --- | --- | --- |
| C=CC(=O)Nc1cccc(Oc2nc(Nc3ccc(NC4CN(CCF)C4)cc3OC)nc3[nH]ccc23)c1 [Compound 34, N-(3-(2-(4-(1-(2-fluoroethyl)azetidin-3-ylamino)-2-methoxyphenylamino)-7H-pyrrolo[2,3-d]pyrimidin-4-yloxy)phenyl)acrylamide] | 2.02 µM | 92.95 | 0.0217 µM |  |
| C=CC(=O)Nc1cccc(Oc2nc(Nc3ccc(N4CCN(C)CC4)c(F)c3)nc3c2ccn3CO)c1 [Compound 6, N-(3-(2-(3-fluoro-4-(4-methylpiperazin-1-yl)phenylamino)-7-(hydroxymethyl)-7H-pyrrolo[2,3-d]pyrimidin-4-yloxy)phenyl)acrylamide] | 9.27 µM | 232.91 | 0.0398 µM |  |
| C=CC(=O)Nc1cccc(Oc2nc(Nc3ccc(N4CCN(C)CC4)nc3)nc3[nH]ccc23)c1 [Compound 2, N-(3-(2-(6-(4-methylpiperazin-1-yl)pyridin-3-ylamino)-7H-pyrrolo[2,3-d]pyrimidin-4-yloxy)phenyl)acrylamide] | 0.3 µM | 300.00 | 0.001 µM | IC50 (human wt BTK): 0.012 µM and 0.059 µM; IC50 (human wt JAK3): 0.2 µM and 0.36 µM; pIC50 (JAK3): 10.44; pIC50 (BTK): 9.44; pIC50 (JAK2): 5.69 |
| C=CC(=O)Nc1cccc(Oc2nc(Nc3ccc(N4CCN(C)CC4)nc3)nc3c2ccn3CO)c1 [Compound 5, N-(3-(7-(hydroxymethyl)-2-(6-(4-methylpiperazin-1-yl)pyridin-3-ylamino)-7H-pyrrolo[2,3-d]pyrimidin-4-yloxy)phenyl)acrylamide] | 27.5 µM | 113.17 | 0.243 µM |  |
| C=CC(=O)Nc1cccc(Oc2nc(Nc3ccc(N4CCN(C)CC4)cc3)nc3c2ccn3CCF)c1 [Compound 7, N-(3-(7-(2-fluoroethyl)-2-(4-(4-methylpiperazin-1-yl)phenylamino)-7H-pyrrolo[2,3-d]pyrimidin-4-yloxy)phenyl)acrylamide] | > 20 µM |  | 12.4 µM |  |
| C=CC(=O)Nc1cccc(Oc2nc(Nc3ccc(N4CCN(C)CC4)cc3)nc3c2ccn3CO)c1 [Compound 4, N-(3-((7-(hydroxymethyl)-2-((4-(4-methylpiperazin-1-yl)phenyl)amino)-7H-pyrrolo[2,3-d]pyrimidin-4-yl)oxy)phenyl)acrylamide] | 10.9 µM | 162.69 | 0.067 µM |  |
| COc1cc2ncnc(Nc3ccc(F)c(Cl)c3)c2cc1OCCCN1CCOCC1 [Gefitinib] |  |  |  | T-C (days) at 300 mm^3 ([3]; 100 mg/kg po qd): >14 days; T/C (%) ([3]; 100 mg/kg po qd): 8.7%; Tumor Weight (g) at day 23(14) ([3]; 100 mg/kg po qd): 0.13 ± 0.03 g; Mouse Weight (g) at day 25(14) ([3]; 100 mg/kg po qd, Mean ± SEM): 21.56 ± 0.51 g; Tumor Size (mm^3) at day 25(14) ([3]; 100 mg/kg po qd, Mean ± SEM, Table 16): 154 ± 33 mm^3; Tumor volume ([3]; day 11, Mean ± SEM): 239.83 ± 23.30 mm^3; Tumor volume ([3]; day 18, Mean ± SEM): 139.70 ± 26.94 mm^3; Tumor volume ([3]; day 21, Mean ± SEM): 139.70 ± 22.07 mm^3; Tumor volume ([3]; day 25, Mean ± SEM): 154.79 ± 32.62 mm^3 |
